Laboratory results: patent publication US10336748B2, “Methyoxy-substituted pyrrolopyridine modulators of RORC2 and methods of use thereof” (Pfizer Inc., priority 2015, dated 2019)

What was measured:
[1] = molecular target: T1, RORC2 ligand binding domain (6-His-RORC2 LBD) (Homo sapiens, UniProt P51449); assay: Co-activator recruitment by TR-FRET; assay type: biochemical; conditions: 6.3 nM RORC2 LBD, 200 nM SRC1-2 coactivator peptide, 3 hr room temperature
T1 construct: made in house; host or cells: E. coli
T1 sequence (P51449 269-508 limits assumed): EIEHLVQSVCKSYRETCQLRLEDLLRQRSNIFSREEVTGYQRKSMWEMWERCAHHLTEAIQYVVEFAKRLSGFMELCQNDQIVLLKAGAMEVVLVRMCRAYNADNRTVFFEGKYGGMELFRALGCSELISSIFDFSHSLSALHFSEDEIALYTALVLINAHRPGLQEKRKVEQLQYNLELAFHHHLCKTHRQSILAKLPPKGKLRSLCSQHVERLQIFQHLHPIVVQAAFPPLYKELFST
Source text: The activity of compound of the invention can be determined by a co-activator recruitment by TR-FRET (time-resolved fluorescence resonance energy transfer) assay. In general, the assay is based on the interaction between N-terminally Six-Histidine-tagged-RORC2 ligand binding domain (6-His-RORC2 LBD), expressed in E. coli and purified by affinity chromatography, and biotin-coactivator peptide SRC1-2 (biotin-aminohexanoic acid-[…]-NH2; SEQ ID NO: 1) containing the LXXLL consensus domain which is responsible for receptor binding. This interaction is detected by addition of Europium labeled-anti-His antibody (Ex. 337 nm, Em. 620 nm, which binds to 6His) and Streptavidin-APC (Ex. 620 nm, Em. 665 nm, which binds to biotin). When receptor and coactivator are bound to each other, upon shining light at 337 nm on the sample, the Europium emits fluorescence that excites APC due to close proximity (FRET) and this signal is measured at 665 nm. Due to the long lasting fluorescence emission of Europium, the non-specific, short-lived fluorescence is time-resolved (TR) from the fluorescence of interest. Inhibitors of the interaction of receptor and coactivator peptide are detected by a decrease in TR-FRET signal.
Specifically, in one embodiment the aforementioned assay was performed as outlined below. The assay was carried out in black polystyrene. 384-well plates in a total assay volume of 50.5 μL. The assay buffer contained 50 mM TRIS-HCL pH 7.5, 1 mM NaCl, 2 mM MgCl2, 0.5 mg/mL bovine serum albumin, and 5 mM dithiothreitol. The final concentration of reagents was 6.3 nM RORC2 LBD, 200 nM SRC1-2, 50 nM streptavidin APC, 1 nM Europium-labeled anti-His antibody, and varying concentrations of compounds such that final concentration of DMSO is 1% (v/v). The assay steps were: (1) dispensing […] compound at 100× final concentration in DMSO (test wells) or DMSO only (control wells for no inhibition); and (2) dispensing 50 μL mixture of the other assay components including receptor (test wells) or excluding receptor (control wells for maximal inhibition).
Assay mixtures were incubated are room temperature for 3 hr and read in EnVision 2100 Multilabel Reader (PerkinElmer Life Sciences) at Excitation Filter 320, Emission Europium Filter 615, Emission APC Filter 665, Dichroic Mirror D400/D630.
TR-FRET signal was determined by calculating the ratio of 665 nm by 615 nm and […] values of compounds of the invention (Table 1) were determined by the non-linear regression analysis of dose response curves.

[2] = test system: human Th17 cells; assay: IL-17 production from human Th17 cells; assay type: cell-based; conditions: 144 h; IL-17A in supernatant by ELISA (MSD) after 6 days, human CD4+ T cells, anti-CD3 + anti-CD28 + cytokine cocktail
Procedure: The activity of compound of the invention can be also be determined by an IL-17 production from human Th17 cells assay. In general, this assay measures blockade of IL-17 production, the signature cytokine of T helper 17 (Th17) cells, by compounds. Purified human CD4+ T cells are stimulated with anti-CD3+anti-CD28 and incubated with a cytokine cocktail that induce their differentiation into Th17 in the absence or presence of various concentrations of compound. After 6 days, IL-17A concentration is measured in the cell culture supernatant with an ELISA kit (MSD).
Preparation of human CD4+ T cells. CD4+ T cells were purified from buffy coats from healthy donors (obtained from Massachusetts General Hospital) by negative selection the following procedure: Mixing 25 mL of blood with 1 mL of Rosette Sep CD4+ T cell enrichment cocktail (StemCell Technologies) followed by application of a layer of 14 mL Ficoll Paque Plus (Amersham GE Healthcare) and subsequent centrifugation at 1200 g for 20 min at room temperature. The Ficoll layer was then harvested and washed with phosphate saline buffer containing 2% (v/v) fetal bovine serum and cells were resuspended with RPMI medium containing 10% (v/v) fetal bovine serum and 10% (v/v) DMSO, frozen and kept in LN2 until used.
On the first day of the assay, a vial containing 10^7 CD4+ T cells is thawed rapidly in 37° C. water bath, immediately transferred into 20 mL X-Vivo 15 medium (Lonza), is spun for 6 min at 300×g, the supernatant is discarded, and the resulting pellet is re-suspended at 10^6 cells/mL in […] fresh X-Vivo 15 medium, followed by storage overnight in a tissue culture vessel in a humidified chamber at 37° C. and 5% CO2. Serial dilutions of compounds of the invention are prepared at 10× final concentration in X-Vivo15 medium containing 3% (v/v) DMSO.
On the second day of the assay, a 384-well tissue culture plate was coated with 10 μg/mL anti-hCD3 (eBioscience) at 50 μL/well. After 2 hr at 37° C., the supernatant is discarded and the coated plates are kept in a sterile tissue culture hood.
Cytokine plus anti-CD28 cocktail is prepared by mixing 25 ng/mL hIL-6 (Peprotech), 5 ng/mL hTGFbeta1 (Peprotech), 12.5 ng/mL IL-1beta (Peprotech), 25 ng/mL hIL-21, 25 ng/mL hIL-23 (R&D Systems), and 1 ug/mL anti-hCD28 (eBioscience) in X-Vivo 15 medium. The cytokine plus anti-CD28 cocktail with CD4+ cells is prepared such that the cocktail is diluted 10-fold and cell density is 0.22×10^6/mL. The mixture is incubated 1 hr at 37° C.
90 μL (20,000 cells) dispensed per well in the anti-hCD3 coated plate prepared as noted above.
10 μL 10× compound is added per well (final DMSO=0.3%) from the compound plate that was previously prepared, followed by 6 days of incubation in a tissue culture vessel in a humidified chamber at 37° C. and 5% CO2.
On day six of the assay, production of IL-17A in 10 μL of the supernatant is determined by sandwich ELISA using 384w hIL17 MSD plates following the manufacturer's protocol. Measurement is carried out in a Sector Imager 6000 by the same manufacturer. Signal units from the instrument are converted to pg/mL using a calibration curve with known amounts of IL-17A. IC50 values of test compounds (Table 2) are determined by the non-linear regression analysis of dose response curves.

| Compound | IC50 [1] | IC50 [2] |
| --- | --- | --- |
| COc1c(NC(=O)c2cccc(C#N)c2)cnc2c1c(C1CCN(C(=O)C3CCCC3)C[C@@H]1C)cn2C (stereo partly drawn) [Example 24, 3-cyano-N-(3-((3R,4R)-1-(cyclopentanecarbonyl)-3-methylpiperdin-4-yl)-4-methoxy-1-methyl-1H-pyrrolo[2,3-b]pyridin-5-yl)benzamide] | 10.2 nM | 25 nM |
| COc1cc(C#N)cc(C(=O)Nc2cnc3c(c(C4CCN(C(=O)C[C@@H](O)C(F)(F)F)CC4)cn3C)c2OC)c1 [Example 9, (R)-3-cyano-5-methoxy-N-(4-methoxy-1-methyl-3-(1-(4,4,4-trifluoro-3-hydroxybutanoyl)piperidin-4-yl)-1H-pyrrolo[2,3-b]pyridin-5-yl)benzamide] | 56.2 nM | 77.1 nM |
| COc1ccc(C(=O)Nc2cnc3c(c([C@@H]4CCN(C(=O)C(C)C)C(C)(C)C4)cn3C)c2OC)cc1C#N [Example 29, (R)-3-cyano-N-(3-(1-isobutyryl-2,2-dimethylpiperidin-4-yl)-4-methoxy-1-methyl-1H-pyrrolo[2,3-b]pyridin-5-yl)-4-methoxybenzamide] | 8.1 nM | 8.9 nM |
| COc1ccc(C(=O)Nc2cnc3c(c([C@@H]4CCN(C(=O)C5CCCC5)C[C@@H]4C)cn3C)c2OC)cc1C#N [Example 25, 3-cyano-N-(3-((3R,4R)-1-(cyclopentanecarbonyl)-3-methylpiperidin-4-yl)-4-methoxy-1-methyl-1H-pyrrolo[2,3-b]pyridin-5-yl)-4-methoxybenzamide] | 10.1 nM | 12 nM |
| COc1c(NC(=O)c2cccc(C#N)c2)cnc2c1c([C@@H]1CCN(C(=O)[C@@H](C)C(C)(C)C)C(C)(C)C1)cn2C [Example 34, 3-cyano-N-(3-((R)-2,2-dimethyl-1-((S)-2,3,3-trimethylbutanoyl)piperidin-4-yl)-4-methoxy-1-methyl-1H-pyrrolo[2,3-b]pyridin-5-yl)benzamide] | 9.4 nM | 23.1 nM |
| COc1ccc(C(=O)Nc2cnc3c(c(C4CCN(C(=O)C5CCCCC5)CC4)cn3C)c2OC)cc1C#N [Example 13, 3-cyano-N-(3-(1-(cyclohexanecarbonyl)piperidin-4-yl)-4-methoxy-1-methyl-1H-pyrrolo[2,3-b]pyridin-5-yl)-4-methoxybenzamide] | 15.4 nM | 9.5 nM |
| COc1ccc(C(=O)Nc2cnc3c(c(C4CCN(C(=O)C(C)C)CC4)cn3C)c2OC)cc1C#N [Example 2, 3-cyano-N-(3-(1-isobutyrylpiperidin-4-yl)-4-methoxy-1-methyl-1H-pyrrolo[2,3-b]pyridin-5-yl)-4-methoxybenzamide] | 38.7 nM | 17.8 nM |
| COc1c(NC(=O)c2cccc(C#N)c2)cnc2c1c(C1CCN(C(=O)[C@@H](C)C3CCCC3)CC1)cn2C [Example 19, (S)-3-cyano-N-(3-(1-(2-cyclopentylpropanoyl)piperidin-4-yl)-4-methoxy-1-methyl-1H-pyrrolo[2,3-b]pyridin-5-yl)benzamide] | 13.3 nM | 22.3 nM |
| COc1c(NC(=O)c2cccc(C#N)c2)cnc2c1c([C@@H]1CCN(C(=O)C3CCCCC3)C(C)(C)C1)cn2C [Example 27, (R)-3-cyano-N-(3-(1-(cyclohexanecarbonyl)-2,2-dimethylpiperidin-4-yl)-4-methoxy-1-methyl-1H-pyrrolo[2,3-b]pyridin-5-yl)benzamide] | 4.8 nM | 11.3 nM |
| COc1c(NC(=O)c2ccc(C)c(C#N)c2)cnc2c1c(C1CCN(C(=O)C3CCCC3)CC1)cn2C [Example 11, 3-cyano-N-(3-(1-(cyclopentanecarbonyl)piperidin-4-yl)-4-methoxy-1-methyl-1H-pyrrolo[2,3-b]pyridin-5-yl)-4-methylbenzamide] | 17.8 nM | 50.7 nM |
| COc1c(NC(=O)c2ccc(F)c(C#N)c2)cnc2c1c(C1CCN(C(=O)C3CCCC3)CC1)cn2C [Example 10, 3-cyano-N-(3-(1-(cyclopentanecarbonyl)piperidin-4-yl)-4-methoxy-1-methyl-1H-pyrrolo[2,3-b]pyridin-5-yl)-4-fluorobenzamide] | 29.2 nM | 106 nM |
| COc1c(NC(=O)c2cccc(C#N)c2)cnc2c1c(C1CCN(C(=O)C3CCCC3)CC1)cn2C [Example 8, 3-cyano-N-(3-(1-(cyclopentanecarbonyl)piperidin-4-yl)-4-methoxy-1-methyl-1H-pyrrolo[2,3-b]pyridin-5-yl)benzamide] | 11.8 nM | 29.8 nM |
| COc1ccc(C(=O)Nc2cnc3c(c([C@@H]4CCN(C(=O)C5CCCC5)C(C)(C)C4)cn3C)c2OC)cc1C#N [Example 30, (R)-3-cyano-N-(3-(1-(cyclopentanecarbonyl)-2,2-dimethylpiperidin-4-yl)-4-methoxy-1-methyl-1H-pyrrolo[2,3-b]pyridin-5-yl)-4-methoxybenzamide] | 13.5 nM | 6.7 nM |
| COc1c(NC(=O)c2cccc(C#N)c2)cnc2c1c(C1CCN(C(=O)[C@@H](C)C(C)(C)C)CC1)cn2C [Example 15, (S)-3-cyano-N-(4-methoxy-1-methyl-3-(1-(2,3,3-trimethylbutanoyl)piperidin-4-yl)-1H-pyrrolo[2,3-b]pyridin-5-yl)benzamide] | 8.6 nM | 23.5 nM |
| COc1ccc(C(=O)Nc2cnc3c(c([C@@H]4CCN(C(=O)C5CCCCC5)C(C)(C)C4)cn3C)c2OC)cc1C#N [Example 32, (R)-3-cyano-N-(3-(1-(cyclohexanecarbonyl)-2,2-dimethylpiperidin-4-yl)-4-methoxy-1-methyl-1H-pyrrolo[2,3-b]pyridin-5-yl)-4-methoxybenzamide] | 5.8 nM | 11 nM |
